Data from US8741911B2, “Raf inhibitor compounds” (Eli Lilly and Company, priority 2012, dated 2014).

Columns and labels:
A375 = assay: CellTiter-Glo proliferation and viability assay; assay type: cell-based; conditions: Homo sapiens, A-375, parental A375 B-Raf V600E cells, comparison with A375res
A375res cells = assay: CellTiter-Glo proliferation and viability assay in vemurafenib-resistant cells; assay type: cell-based, human

## CCCS(=O)(=O)Nc1ccc(F)c(C(=O)c2c[nH]c3ncc(-c4ccc(Cl)cc4)cc23)c1F [PLX4032, vemurafenib]
A375
  IC50: 252 nM
A375res cells
  shift of IC50, A375res versus A375: ~30 fold
A375res cells; Homo sapiens, A375res cells
  IC50: > 7000 nM
